Activity calls are given as the source filed them.
Experiments:
[1] = target: DNA dC->dU-editing enzyme APOBEC-3G (Homo sapiens, UniProt Q9HC16); experiment: inhibition of APOBEC3G ssDNA deamination – biochemical, fluorescence, single-stranded DNA substrate, SAR follow-up (AID 602136); assay type: functional; settings: read-out: IC50_Mean
[2] = target: DNA dC->dU-editing enzyme APOBEC-3A (Homo sapiens, UniProt P31941); experiment: SAR analysis of small molecule inhibitors of APOBEC3A DNA Deaminase via a fluorescence-based single-stranded DNA deaminase assay.; assay type: functional; settings: read-out: IC50_Mean
Aspartyl aminopeptidase = Aspartyl aminopeptidase (Plasmodium falciparum 3D7, UniProt Q8I2J3)
Procathepsin L = Procathepsin L (Homo sapiens, UniProt P07711)
[3] = target: T1, High affinity choline transporter 1 (Homo sapiens, UniProt Q9GZV3); experiment: human choline transporter blockers, potency – cell-based, 5-point CRC, membrane potential dye, dose response (AID 504840); assay type: functional
T1 sequence (Q9GZV3 whole entry): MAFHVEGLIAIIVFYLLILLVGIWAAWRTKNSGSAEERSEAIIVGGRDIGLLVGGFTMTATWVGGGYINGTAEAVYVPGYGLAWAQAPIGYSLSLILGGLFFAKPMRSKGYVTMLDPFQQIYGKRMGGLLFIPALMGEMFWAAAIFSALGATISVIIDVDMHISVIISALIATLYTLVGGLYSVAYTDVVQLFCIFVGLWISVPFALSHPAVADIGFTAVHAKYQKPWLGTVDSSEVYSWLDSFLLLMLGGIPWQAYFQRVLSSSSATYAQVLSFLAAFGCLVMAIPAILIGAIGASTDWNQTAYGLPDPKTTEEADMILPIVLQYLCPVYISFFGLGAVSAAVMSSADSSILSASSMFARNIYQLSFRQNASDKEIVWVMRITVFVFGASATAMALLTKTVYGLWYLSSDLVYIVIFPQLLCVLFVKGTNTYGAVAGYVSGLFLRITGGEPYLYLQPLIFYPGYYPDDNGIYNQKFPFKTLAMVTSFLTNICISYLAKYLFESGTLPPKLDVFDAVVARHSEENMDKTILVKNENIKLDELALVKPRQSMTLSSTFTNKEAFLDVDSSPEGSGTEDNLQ

[4] = target: T1, High affinity choline transporter 1; experiment: human choline transporter blockers, potency – cell-based, 10-point CRC, membrane potential dye, dose response (AID 588401); assay type: functional;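 note: membrane potential dye fluorescence of choline-evoked depolarization via CHT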
P388/ADR = experiment: cells; assay type: functional; settings: Mus musculus
SN12K1 = experiment: cells; assay type: functional; settings: Homo sapiens
P388 = experiment: cells; assay type: functional; settings: Mus musculus
[5] = target: 26S proteasome non-ATPase regulatory subunit 14 (Homo sapiens, UniProt O00487); experiment: inhibition of proteasome subunit RPN11 – biochemical, fluorescence polarization, uHTS hits, confirmation (AID 602368); assay type: functional
[6] = target: 72 kDa type IV collagenase (Homo sapiens, UniProt P08253); experiment: Dose Response validation of uHTS RPN11 inhibitor hits using a MMP-2 Fluorescence assay.; assay type: functional
Prothrombin = Prothrombin (Bos taurus, UniProt P00735); experiment: thrombin protease inhibitors – biochemical, fluorescence polarization, uHTS hits, dose response (AID 602369); assay type: functional
[7] = target: T2, Heat shock factor protein 1 (Mus musculus, UniProt P38532); experiment: decrease of HSF1-responsive luciferase luminescence – cell-based, NIH3T3, dose retest, confirmation (AID 2382); assay type: functional;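 note: NIH3T3 fibroblasts with HSF1-driven luciferase reporter stressed by proteasome inhibitor MG132; luminescence from HSF1-driven luciferase expression after 8 hours of MG132 stress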
T2 sequence (P38532 whole entry): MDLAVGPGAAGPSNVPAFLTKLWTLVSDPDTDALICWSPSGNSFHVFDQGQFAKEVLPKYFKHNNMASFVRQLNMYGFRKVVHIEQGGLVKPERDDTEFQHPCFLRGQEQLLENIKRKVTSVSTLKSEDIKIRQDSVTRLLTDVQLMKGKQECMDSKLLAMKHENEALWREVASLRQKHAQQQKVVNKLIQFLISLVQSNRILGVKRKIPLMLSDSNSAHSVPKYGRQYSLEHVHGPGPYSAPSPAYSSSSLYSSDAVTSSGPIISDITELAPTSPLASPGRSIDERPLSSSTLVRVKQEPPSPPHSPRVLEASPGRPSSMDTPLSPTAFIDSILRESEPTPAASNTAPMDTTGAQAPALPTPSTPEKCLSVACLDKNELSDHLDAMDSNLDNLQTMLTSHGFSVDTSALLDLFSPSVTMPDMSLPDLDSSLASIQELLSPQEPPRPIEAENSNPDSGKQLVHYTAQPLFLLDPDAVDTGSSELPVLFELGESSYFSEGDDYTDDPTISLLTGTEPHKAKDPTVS

[8] = HEK-293T viability loss after treatment – luminescence, T-cell screen hits, cytotoxicity control for TCR NF-kB inhibitor project, dose response (AID 489026); assay type: functional, cell-based;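 note: cells exposed to compound about 14 hours before the viability readout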
[9] = target: T3, Microphthalmia-associated transcription factor (Homo sapiens, UniProt O75030); experiment: reducers of TRPM1 reporter luminescence, concentration series – cell-based, SK-MEL-5, cherry-picked, set 3, MITF inhibitor project, dose response (AID 493073); assay type: functional;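 note: SK-MEL-5 melanoma cells with luciferase driven by the MITF target TRPM1 promoter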
T3 sequence (O75030 whole entry): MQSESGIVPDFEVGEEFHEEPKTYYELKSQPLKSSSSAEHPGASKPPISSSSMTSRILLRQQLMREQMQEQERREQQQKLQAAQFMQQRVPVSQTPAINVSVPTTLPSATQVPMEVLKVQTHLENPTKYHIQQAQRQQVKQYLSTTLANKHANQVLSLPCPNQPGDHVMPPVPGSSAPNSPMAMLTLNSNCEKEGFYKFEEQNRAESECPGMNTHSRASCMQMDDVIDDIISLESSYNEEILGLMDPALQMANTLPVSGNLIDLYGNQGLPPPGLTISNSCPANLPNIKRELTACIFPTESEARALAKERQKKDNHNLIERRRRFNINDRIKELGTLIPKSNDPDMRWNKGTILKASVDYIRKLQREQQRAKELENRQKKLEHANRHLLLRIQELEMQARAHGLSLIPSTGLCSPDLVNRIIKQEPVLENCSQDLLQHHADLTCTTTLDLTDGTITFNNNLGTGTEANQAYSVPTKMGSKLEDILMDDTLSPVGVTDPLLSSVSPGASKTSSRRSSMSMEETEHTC

[10] = target: Luciferin 4-monooxygenase (Photinus pyralis, UniProt P08659); experiment: inhibition of purified Photinus pyralis luciferase – biochemical, dry powder samples, plate reader, dose response (AID 588451)
H4 [11] = experiment: inhibitors of control reporter signal in H4 cells – cell-based, plate reader, dry powder samples, counter-screen for prion reporter project, dose response (AID 540255); assay type: functional; settings: Homo sapiens
H4 [12] = experiment: Amyloid Precursor 5' UTR neuroblastoma cell reporter line Measured in Cell-Based System Using Plate Reader - 2078-04_Inhibitor_Dose_DryPowder_Activity. [Related pubchem assays (depositor defined):AID488894]; assay type: functional; settings: Homo sapiens
H4 [13] = experiment: Inhibitors of Prion Protein 5' UTR mRNA Measured in Cell-Based System Using Plate Reader - 2078-01_Inhibitor_Dose_DryPowder_Activity. [Related pubchem assays (depositor defined):AID488894]; assay type: functional; settings: Homo sapiens
[14] = reduction of Shn3 3'UTR-driven luciferase in osteoblasts – cell-based, Clone20 osteoblasts, firefly luciferase, cherry-picked, dose response (AID 624132); assay type: functional;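 note: firefly luciferase luminescence from reporter carrying the Shn3 3'UTR in osteoblasts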
[15] = target: Serine/threonine-protein kinase 17A (Homo sapiens, UniProt Q9UEE5); assay type: functional
Aurora kinase B = Aurora kinase B (Homo sapiens, UniProt Q96GD4); assay type: functional
[16] = target: Serine/threonine-protein kinase pim-1 (Homo sapiens, UniProt P11309); assay type: functional
[17] = target: Serine/threonine-protein kinase pim-3 (Homo sapiens, UniProt Q86V86); assay type: functional;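 note: value obtained as one member of a broad kinase panel profiling effort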
[18] = target: Cell division cycle 7-related protein kinase (Homo sapiens, UniProt O00311); assay type: functional;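 note: value obtained from a kinome-wide kinase panel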
[19] = target: Cyclin-dependent kinase 19 (Homo sapiens, UniProt Q9BWU1); experiment: Navigating the Kinome. Panel member name: CDC2L6; assay type: functional
[20] = target: T4, Neuropeptides B/W receptor type 1 (Homo sapiens, UniProt P48145); experiment: human NPBW1 receptor blockade, IC50 – cell-based, fluorescence, dose response, set 5, late-stage follow-up (AID 588566); assay type: functional
T4 sequence (P48145 whole entry): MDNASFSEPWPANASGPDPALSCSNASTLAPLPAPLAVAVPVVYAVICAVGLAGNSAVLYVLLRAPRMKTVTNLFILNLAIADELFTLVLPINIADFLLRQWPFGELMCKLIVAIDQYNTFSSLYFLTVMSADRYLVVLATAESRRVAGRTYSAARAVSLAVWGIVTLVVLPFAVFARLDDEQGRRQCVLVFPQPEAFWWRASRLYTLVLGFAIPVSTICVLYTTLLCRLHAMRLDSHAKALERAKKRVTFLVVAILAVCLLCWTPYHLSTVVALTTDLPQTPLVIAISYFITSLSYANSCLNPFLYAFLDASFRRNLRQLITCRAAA

[21] = target: Melanin-concentrating hormone receptor 1 (Homo sapiens, UniProt Q99705); experiment: Late-stage fluorescence-based counterscreen for antagonists of the G-protein coupled receptor 7 (GPR7): cell-based dose response assay to identify antagonists of the melanin-concentrating hormone receptor 1 (MCHR1) Set 5.; assay type: functional
CHO-K1 = experiment: (§1) Counterscreen for antagonists of the orexin 1 receptor (OX1R; HCRTR1): Homogeneous time resolved fluorescence (HTRF)-based cell-based dose response assay to identify antagonists of the parental CHO-K1 cell line. [Related pubchem assays (depositor defined):AID434989, AID435008, AID463079, AID485270, AID492963, AID492964, AID492965, AID493232, AID504699, AID504701]; assay type: functional; settings: Cricetulus griseus
[22] = as §1, with “Fluorescence-based” for “Homogeneous time resolved fluorescence (HTRF)-based”, “cell-based high throughput” for “cell-based”, “CHO” for “CHO-K1”; assay type: functional
[23] = target: T5, Orexin/Hypocretin receptor type 1 (Homo sapiens, UniProt O43613); experiment: Homogeneous Time Resolved Fluorescence (HTRF)-based cell-based high throughput dose response assay for antagonists of the orexin 1 receptor (OX1R; HCRTR1). [Related pubchem assays (depositor defined):AID434989, AID435008, AID463079, AID485270, AID492963, AID492964, AID492965, AID493232, AID504717, AID504718]; assay type: functional
[24] = target: T5, Orexin/Hypocretin receptor type 1; experiment: Fluorescence-based cell-based high throughput dose response assay for antagonists of the orexin 1 receptor (OX1R; HCRTR1). [Related pubchem assays (depositor defined):AID434989, AID435008, AID463079, AID485270, AID492963, AID492964, AID492965, AID493232, AID504717, AID504718]; assay type: functional
Orexin receptor type 2 [25] = target: T6, Orexin receptor type 2 (Homo sapiens, UniProt O43614); experiment: Counterscreen assay for antagonists of the orexin 1 receptor (OX1R; HCRTR1): Fluorescence-based cell-based dose response assay for antagonists of the orexin 2 receptor (OX2R; HCRTR2), run by assay provider.; assay type: functional
Orexin receptor type 2 [26] = target: T6, Orexin receptor type 2; experiment: Counterscreen assay for antagonists of the orexin 1 receptor (OX1R; HCRTR1): Homogeneous Time Resolved Fluorescence (HTRF)-based cell-based dose response assay for antagonists of the orexin 2 receptor (OX2R; HCRTR2), run by assay provider.; assay type: functional

T6 sequence (O43614 whole entry): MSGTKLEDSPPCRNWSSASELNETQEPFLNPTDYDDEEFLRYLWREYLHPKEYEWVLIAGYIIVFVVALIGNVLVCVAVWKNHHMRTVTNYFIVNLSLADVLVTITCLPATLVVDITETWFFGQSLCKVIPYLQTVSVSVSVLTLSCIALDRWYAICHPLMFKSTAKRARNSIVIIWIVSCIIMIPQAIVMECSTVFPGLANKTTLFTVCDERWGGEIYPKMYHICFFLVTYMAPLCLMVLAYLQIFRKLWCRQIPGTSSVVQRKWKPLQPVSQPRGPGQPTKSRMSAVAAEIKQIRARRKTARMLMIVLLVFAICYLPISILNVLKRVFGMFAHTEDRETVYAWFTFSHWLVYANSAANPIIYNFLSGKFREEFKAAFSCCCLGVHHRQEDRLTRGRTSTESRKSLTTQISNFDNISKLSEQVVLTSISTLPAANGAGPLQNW
T5 sequence (O43613 whole entry): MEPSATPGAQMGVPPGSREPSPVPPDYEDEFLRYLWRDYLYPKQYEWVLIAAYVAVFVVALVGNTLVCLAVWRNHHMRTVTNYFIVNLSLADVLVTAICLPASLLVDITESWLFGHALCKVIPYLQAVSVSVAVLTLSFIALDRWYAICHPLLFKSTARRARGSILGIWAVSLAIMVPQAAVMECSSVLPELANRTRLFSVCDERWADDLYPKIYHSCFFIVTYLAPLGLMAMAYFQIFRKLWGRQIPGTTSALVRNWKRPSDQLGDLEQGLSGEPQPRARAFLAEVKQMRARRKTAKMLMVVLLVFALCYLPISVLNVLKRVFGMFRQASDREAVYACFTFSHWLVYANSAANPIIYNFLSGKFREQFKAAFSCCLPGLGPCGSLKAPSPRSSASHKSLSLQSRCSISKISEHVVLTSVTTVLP
Sequence of Cell division cycle 7-related protein kinase (O00311 whole entry): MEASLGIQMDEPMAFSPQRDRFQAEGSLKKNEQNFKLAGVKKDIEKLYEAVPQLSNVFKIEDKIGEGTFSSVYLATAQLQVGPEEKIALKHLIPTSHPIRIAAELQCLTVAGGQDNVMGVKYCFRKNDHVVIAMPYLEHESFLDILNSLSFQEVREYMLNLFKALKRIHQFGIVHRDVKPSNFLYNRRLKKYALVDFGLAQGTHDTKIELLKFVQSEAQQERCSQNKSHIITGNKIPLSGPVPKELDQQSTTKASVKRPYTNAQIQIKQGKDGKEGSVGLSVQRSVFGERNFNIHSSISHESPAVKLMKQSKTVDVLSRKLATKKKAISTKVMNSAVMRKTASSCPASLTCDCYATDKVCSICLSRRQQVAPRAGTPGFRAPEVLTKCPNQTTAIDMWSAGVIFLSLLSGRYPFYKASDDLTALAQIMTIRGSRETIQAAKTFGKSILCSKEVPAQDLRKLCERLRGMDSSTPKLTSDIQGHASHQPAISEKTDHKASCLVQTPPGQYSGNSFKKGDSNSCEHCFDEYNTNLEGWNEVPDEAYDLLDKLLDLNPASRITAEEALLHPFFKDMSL
Sequence of Aspartyl aminopeptidase (Q8I2J3 whole entry): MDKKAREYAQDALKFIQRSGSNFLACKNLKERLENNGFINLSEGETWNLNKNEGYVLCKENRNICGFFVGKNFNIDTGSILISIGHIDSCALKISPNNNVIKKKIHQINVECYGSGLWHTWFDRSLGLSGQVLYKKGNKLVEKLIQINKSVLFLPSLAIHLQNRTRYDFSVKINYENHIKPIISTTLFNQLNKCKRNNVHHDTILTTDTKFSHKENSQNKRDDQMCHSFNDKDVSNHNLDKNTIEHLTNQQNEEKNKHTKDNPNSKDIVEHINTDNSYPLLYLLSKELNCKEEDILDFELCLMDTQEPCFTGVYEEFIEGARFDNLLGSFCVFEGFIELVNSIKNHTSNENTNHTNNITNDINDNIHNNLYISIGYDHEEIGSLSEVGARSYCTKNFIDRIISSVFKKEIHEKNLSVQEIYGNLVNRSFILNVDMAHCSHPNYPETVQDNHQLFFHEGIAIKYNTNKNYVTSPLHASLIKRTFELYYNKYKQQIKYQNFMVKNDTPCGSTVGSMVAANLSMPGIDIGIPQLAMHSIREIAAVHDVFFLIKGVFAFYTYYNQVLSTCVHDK
Sequence of 72 kDa type IV collagenase (P08253 whole entry): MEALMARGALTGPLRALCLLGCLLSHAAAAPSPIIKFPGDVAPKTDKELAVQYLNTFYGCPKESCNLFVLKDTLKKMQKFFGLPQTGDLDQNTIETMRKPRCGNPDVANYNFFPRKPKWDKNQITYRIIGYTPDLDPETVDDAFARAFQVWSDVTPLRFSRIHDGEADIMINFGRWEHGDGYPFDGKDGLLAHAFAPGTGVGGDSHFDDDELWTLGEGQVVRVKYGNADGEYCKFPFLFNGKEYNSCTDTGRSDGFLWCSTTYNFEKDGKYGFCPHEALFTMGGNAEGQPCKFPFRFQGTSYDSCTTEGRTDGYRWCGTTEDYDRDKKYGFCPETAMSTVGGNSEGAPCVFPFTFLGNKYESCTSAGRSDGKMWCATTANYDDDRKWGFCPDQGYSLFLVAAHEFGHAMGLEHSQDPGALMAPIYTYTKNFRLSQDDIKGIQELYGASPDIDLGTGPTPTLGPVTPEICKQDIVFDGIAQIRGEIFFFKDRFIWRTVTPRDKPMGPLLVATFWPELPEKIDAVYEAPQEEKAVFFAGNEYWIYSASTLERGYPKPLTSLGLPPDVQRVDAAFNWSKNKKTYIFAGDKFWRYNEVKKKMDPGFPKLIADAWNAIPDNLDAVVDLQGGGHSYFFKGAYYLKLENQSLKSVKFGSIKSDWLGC
Sequence of DNA dC->dU-editing enzyme APOBEC-3A (P31941 whole entry): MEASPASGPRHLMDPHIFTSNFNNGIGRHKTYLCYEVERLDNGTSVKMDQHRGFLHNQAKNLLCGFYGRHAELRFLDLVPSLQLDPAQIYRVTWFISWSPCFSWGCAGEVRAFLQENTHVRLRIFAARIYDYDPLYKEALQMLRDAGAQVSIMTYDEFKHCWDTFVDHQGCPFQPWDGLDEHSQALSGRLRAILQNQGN
Sequence of Serine/threonine-protein kinase pim-1 (P11309 whole entry): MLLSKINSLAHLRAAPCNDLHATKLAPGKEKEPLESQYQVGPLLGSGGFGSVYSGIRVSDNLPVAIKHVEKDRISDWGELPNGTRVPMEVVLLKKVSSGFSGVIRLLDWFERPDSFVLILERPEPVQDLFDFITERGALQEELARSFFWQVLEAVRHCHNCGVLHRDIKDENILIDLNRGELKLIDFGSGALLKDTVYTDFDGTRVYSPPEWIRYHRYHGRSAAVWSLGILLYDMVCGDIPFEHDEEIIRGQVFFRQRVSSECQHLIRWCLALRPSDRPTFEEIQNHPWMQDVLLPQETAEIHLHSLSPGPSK
Sequence of Melanin-concentrating hormone receptor 1 (Q99705 whole entry): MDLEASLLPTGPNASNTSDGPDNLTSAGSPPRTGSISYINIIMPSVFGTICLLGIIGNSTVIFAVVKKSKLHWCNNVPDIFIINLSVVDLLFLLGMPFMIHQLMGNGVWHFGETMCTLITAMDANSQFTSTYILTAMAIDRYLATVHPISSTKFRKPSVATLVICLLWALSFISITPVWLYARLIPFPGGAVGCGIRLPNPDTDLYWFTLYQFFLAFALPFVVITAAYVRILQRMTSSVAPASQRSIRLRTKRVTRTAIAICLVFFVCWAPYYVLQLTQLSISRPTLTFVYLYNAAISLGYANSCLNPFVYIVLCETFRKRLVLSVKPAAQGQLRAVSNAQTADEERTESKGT
Sequence of 26S proteasome non-ATPase regulatory subunit 14 (O00487 whole entry): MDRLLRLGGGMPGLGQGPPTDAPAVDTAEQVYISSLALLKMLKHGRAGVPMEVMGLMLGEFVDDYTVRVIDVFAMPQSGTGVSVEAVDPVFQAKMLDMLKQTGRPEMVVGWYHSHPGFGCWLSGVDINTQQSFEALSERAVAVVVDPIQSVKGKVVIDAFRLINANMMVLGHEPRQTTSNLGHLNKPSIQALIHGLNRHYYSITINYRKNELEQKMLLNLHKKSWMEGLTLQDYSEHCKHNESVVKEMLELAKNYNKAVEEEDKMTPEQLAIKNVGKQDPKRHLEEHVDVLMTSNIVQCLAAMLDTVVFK
Sequence of Aurora kinase B (Q96GD4 whole entry): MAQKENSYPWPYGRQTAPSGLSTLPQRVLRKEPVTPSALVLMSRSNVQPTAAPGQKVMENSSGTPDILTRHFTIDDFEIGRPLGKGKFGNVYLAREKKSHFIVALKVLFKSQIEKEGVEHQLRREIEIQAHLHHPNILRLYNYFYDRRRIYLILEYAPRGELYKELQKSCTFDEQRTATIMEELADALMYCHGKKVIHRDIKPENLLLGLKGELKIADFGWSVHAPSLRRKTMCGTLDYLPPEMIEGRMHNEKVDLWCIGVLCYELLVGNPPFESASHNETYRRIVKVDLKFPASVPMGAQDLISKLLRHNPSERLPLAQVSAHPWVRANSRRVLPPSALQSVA
Sequence of Luciferin 4-monooxygenase (P08659 whole entry): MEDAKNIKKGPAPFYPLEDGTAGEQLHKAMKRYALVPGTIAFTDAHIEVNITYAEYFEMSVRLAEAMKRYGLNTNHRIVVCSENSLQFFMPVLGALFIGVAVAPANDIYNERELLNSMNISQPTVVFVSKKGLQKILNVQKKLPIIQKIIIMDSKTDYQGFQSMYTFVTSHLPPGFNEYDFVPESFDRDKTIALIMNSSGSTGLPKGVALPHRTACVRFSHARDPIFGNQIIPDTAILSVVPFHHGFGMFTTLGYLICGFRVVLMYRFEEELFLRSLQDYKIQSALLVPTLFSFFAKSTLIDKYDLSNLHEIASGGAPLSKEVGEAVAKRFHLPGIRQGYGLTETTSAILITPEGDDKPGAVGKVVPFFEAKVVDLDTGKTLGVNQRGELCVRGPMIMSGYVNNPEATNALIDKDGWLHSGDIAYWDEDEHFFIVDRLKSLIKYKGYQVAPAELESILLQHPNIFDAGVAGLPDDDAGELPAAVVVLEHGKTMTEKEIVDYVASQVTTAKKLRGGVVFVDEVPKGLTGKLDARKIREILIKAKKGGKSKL

Clc1cnc2[nH]c(SCc3nnc(-c4cccs4)o3)nc2c1
IC50 [1]: 20.6 µM (inactive)
IC50 [2]: > 99 µM (inactive)

O=CN/C=C/c1cc(O)ccc1O [ERBSTATIN]
IC50 (Aspartyl aminopeptidase): 3.72 µM (active)
IC50 (Procathepsin L): > 59.6 µM (not active)
IC50 [3]: 4.17 µM (active)
IC50 [4]: 0.751 µM (active)
GI50 (P388/ADR): 2.02 µM (inactive)
GI50 (SN12K1): 16.2 µM (inactive)
GI50 (P388): 2.1 µM (inactive)

Cc1ccc(-n2c(-c3ccco3)nc3nc4ccccc4nc32)cc1
IC50 [5]: 24.1 µM (active)
IC50 [6]: > 100 µM (inactive)
IC50 (Prothrombin): 69 µM (active)

Cc1ccc(NC(=O)c2cc3ccccc3oc2=O)cc1S(=O)(=O)N(C)C
EC50 [7]: < 0.16 µM (active)
IC50 [8]: > 80 µM (inactive)
AC50 [9]: 0.03 µM (active)
AC50 [10]: 0.0893 µM (active)
AC50 (H4 [11]): < 0.02 µM (active)
AC50 (H4 [12]): 0.00125 µM (active)
AC50 (H4 [13]): 0.011 µM (active)
AC50 [14]: 1.29 µM (active)

CN(C)CC(=O)Nc1n[nH]c2cc(-c3cn(Cc4ccccc4)nn3)ccc12
Ki [15]: 1 µM (active)
Ki (Aurora kinase B): 3.16 µM (active)

NC(=O)c1ccc2c(ccn2-c2cccc(Cl)c2)c1
Ki [16]: 3.98 µM (active)
Ki [17]: 3.98 µM (active)

O=c1cc(-c2ccncc2)[nH]n1-c1ccc([N+](=O)[O-])cc1
Ki [18]: 0.501 µM (active)
Ki [19]: > 100 µM (inactive)

COc1ccc(Sc2cnn(Cc3cccc4ccccc34)c(=O)c2Cl)cc1
IC50 [20]: 1.19 µM (active)
IC50 [21]: 18.7 µM (inactive)

O=C(c1cccc(N2CCNC2=O)c1)N1CCCC(Nc2cccc(F)c2)C1 (centres undefined)
IC50 (CHO-K1): > 66.2 µM (inactive)
IC50 [22]: > 49.7 µM (inactive)
IC50 [23]: 0.922 µM (active)
IC50 [24]: 9.83 µM (active)
IC50 (Orexin receptor type 2 [25]): > 88.8 µM (inactive)
IC50 (Orexin receptor type 2 [26]): > 50 µM (inactive)
